Data published in patent publication US20040037843A1, “Inducing cellular immune responses to prostate cancer antigens using peptide and nucleic acid compositions” (priority 2003, published 2004).
Like-named read-outs stand apart in the source and are kept apart here.

How the values were obtained:
Test in all cases: HLA class I binding assay, purified HLA, inhibition of 125I-labelled probe peptide
[1] = molecular target: HLA-A*6802 (Homo sapiens, UniProt P04439, A269V/D140Y/D185E/E176V/E277Q/E87N/F33Y/G231S/I121R/I166T/I218V/L180W/L300P/L318F/N151K/P208A/P217A/Q86R/R138H/R169H/S129P/T345S/V36M)
[2] = molecular target: HLA-A*0203 (Homo sapiens, UniProt P04439, A173T/D140Y/D185E/D98H/E277Q/G131W/G231S/I119V/I121R/I166T/I218V/L180W/L300P/L318F/N151K/N90K/P208A/P217A/Q86G/Q94H/R138H/R169H/T345S)
[3] = molecular target: HLA-A*0206 (Homo sapiens, UniProt P04439, D140Y/D185E/D98H/E176V/E277Q/F33Y/G131W/G231S/I119V/I121R/I166T/I218V/L300P/L318F/N151K/N90K/P208A/P217A/Q86G/Q94H/R138H/R169H/T345S)
[4] = molecular target: HLA-A*0201 (Homo sapiens, UniProt P04439, D140Y/D185E/D98H/E176V/E277Q/G131W/G231S/I119V/I121R/I166T/I218V/L300P/L318F/N151K/N90K/P208A/P217A/Q86G/Q94H/R138H/R169H/T345S); settings: A*[…], A2 supermotif cross-reactive binding data
[5] = molecular target: HLA-A*0202 (Homo sapiens, UniProt P04439, D140Y/D185E/D98H/E176V/E277Q/G131W/G231S/I119L/I121R/I166T/I218V/L180W/L300P/L318F/N151K/N90K/P208A/P217A/Q67R/Q86G/Q94H/R138H/R169H/T345S); settings: A2 supermotif cross-reactive binding data
[6] = A2 supermotif cross-reactive binding data, read-out: A*6802 nM
[7] = A*[…], A2 supermotif cross-reactive binding data

| SMILES | IC50 [1, 6] [nM] | IC50 [2, 7] [nM] | IC50 [3, 7] [nM] | IC50 [4] [nM] | IC50 [5] [nM] | IC50 [1] [nM] | IC50 [3] [nM] | IC50 [2] [nM] |
| --- | --- | --- | --- | --- | --- | --- | --- | --- |
| CC(C)[C@H](NC(=O)[C@@H]1CCCN1C(=O)[C@@H](NC(=O)[C@H](C)NC(=O)CNC(=O)[C@@H](NC(=O)[C@H](CS)NC(=O)CNC(=O)[C@@H](NC(=O)[C@@H](N)CO)C(C)C)[C@@H](C)O)C(C)C)C(=O)O [Peptide 1418.35] | 216 | 154 | 552 | 104 |  |  |  |  |
| CC(C)C[C@H](NC(=O)[C@H](Cc1c[nH]cn1)NC(=O)[C@H](CC(C)C)NC(=O)[C@H](CO)NC(=O)[C@@H](NC(=O)[C@H](CS)NC(=O)[C@H](CCC(N)=O)NC(=O)[C@H](CC(C)C)NC(=O)[C@@H](N)CO)C(C)C)C(=O)O [Peptide 60.0191] | 2580 | 417 |  | 500 | 51 |  |  |  |
| CC(C)C[C@H](NC(=O)[C@H](CC(C)C)NC(=O)CNC(=O)[C@H](CC(N)=O)NC(=O)[C@H](Cc1ccc(O)cc1)NC(=O)[C@@H](NC(=O)[C@H](CC(=O)O)NC(=O)[C@H](CC(C)C)NC(=O)[C@H](C)N)C(C)C)C(=O)O [Peptide 1177.02] | > 10000 |  |  | 73 |  |  |  | 256 |
| CSCC[C@H](NC(=O)[C@H](CCC(N)=O)NC(=O)[C@H](CC(C)C)NC(=O)CNC(=O)[C@H](CO)NC(=O)[C@@H](NC(=O)[C@@H](N)[C@@H](C)O)C(C)C)C(=O)N[C@@H](C)C(=O)N[C@H](C(=O)O)C(C)C [Peptide 60.0213] | 5.7 | 122 | 195 | 294 |  |  |  |  |
| CC[C@H](C)[C@H](N)C(=O)N[C@H](C(=O)N[C@@H](CC(C)C)C(=O)N[C@@H](CO)C(=O)N[C@H](C(=O)NCC(=O)N[C@@H](CS)C(=O)N[C@H](C(=O)NCC(=O)N[C@@H](C)C(=O)N[C@H](C(=O)O)C(C)C)[C@@H](C)O)C(C)C)[C@@H](C)O [Peptide 1418.59] |  | 40 | 206 | 294 |  |  |  |  |
| CC[C@H](C)[C@H](NC(=O)[C@H](CO)NC(=O)[C@@H](NC(=O)CN)C(C)C)C(=O)N[C@@H](Cc1c[nH]c2ccccc12)C(=O)N[C@@H](CC(N)=O)C(=O)N1CCC[C@H]1C(=O)N[C@H](C(=O)N[C@H](C(=O)O)C(C)C)[C@@H](C)CC [Peptide 60.0207] | > 10000 | 909 |  | 455 | 269 |  |  |  |
| CSCC[C@H](NC(=O)[C@H](CC(=O)O)NC(=O)[C@H](CC(N)=O)NC(=O)[C@H](CO)NC(=O)[C@H](CC(C)C)NC(=O)[C@H](CC(C)C)NC(=O)[C@@H](N)Cc1c[nH]cn1)C(=O)N[C@@H](CS)C(=O)N[C@@H](C)C(=O)N[C@@H](CCCNC(=N)N)C(=O)N[C@@H](C)C(=O)O [Peptide 1419.15] | > 10000 | 250 | 374 | 417 |  |  |  |  |
| CC(C)C[C@H](NC(=O)[C@H](CC(=O)O)NC(=O)CNC(=O)[C@H](CCC(=O)O)NC(=O)[C@@H]1CCCN1C(=O)[C@@H](NC(=O)CN)[C@@H](C)O)C(=O)N[C@H](C(=O)N[C@@H](Cc1ccc(O)cc1)C(=O)N[C@H](C(=O)O)C(C)C)C(C)C [Peptide 1418.29] | 571 | 53 | 40 | 313 |  |  |  |  |
| CC(C)C[C@H](NC(=O)[C@H](CO)NC(=O)[C@@H](NC(=O)[C@H](CS)NC(=O)[C@H](CCC(N)=O)NC(=O)[C@H](CC(C)C)NC(=O)[C@@H](N)CO)C(C)C)C(=O)N[C@@H](Cc1c[nH]cn1)C(=O)N[C@H](C(=O)O)C(C)C [Peptide 1418.19] |  | 48 | 4110 | 56 |  |  |  |  |
| CC(C)C[C@H](NC(=O)[C@H](CC(C)C)NC(=O)[C@@H](N)CC(C)C)C(=O)N[C@@H](C)C(=O)N[C@@H](CCCNC(=N)N)C(=O)N[C@@H](C)C(=O)N[C@@H](C)C(=O)N[C@@H](CO)C(=O)N[C@H](C(=O)O)C(C)C [Peptide 60.0201] | > 10000 | 6.7 | 95 |  |  |  |  |  |
| CSCC[C@H](NC(=O)[C@H](C)NC(=O)[C@H](CO)NC(=O)[C@H](CCSC)NC(=O)[C@H](CC(C)C)NC(=O)[C@@H](N)[C@@H](C)O)C(=O)N[C@H](C(=O)N[C@@H](CC(N)=O)C(=O)N[C@@H](CC(C)C)C(=O)N[C@@H](C)C(=O)O)[C@@H](C)O [Peptide 20.0312] |  |  |  |  |  | 6670 | 3700 | 37 |
| CSCC[C@H](NC(=O)[C@@H](N)Cc1ccccc1)C(=O)N[C@@H](CC(C)C)C(=O)N[C@@H](CS)C(=O)N[C@@H](C)C(=O)NCC(=O)N[C@@H](CC(C)C)C(=O)N[C@@H](Cc1c[nH]c2ccccc12)C(=O)N[C@H](C(=O)O)C(C)C [Peptide 1418.22] | > 10000 | 91 | 51 |  |  |  |  |  |
| CC(C)C[C@H](NC(=O)[C@H](CO)NC(=O)[C@H](C)NC(=O)[C@H](C)NC(=O)[C@H](CCCNC(=N)N)NC(=O)[C@H](C)NC(=O)[C@H](CC(C)C)NC(=O)[C@H](CC(C)C)NC(=O)[C@@H](N)CC(C)C)C(=O)O [Peptide 20.0044] | > 10000 |  |  | 208 | 13 |  |  |  |
| CSCC[C@H](N)C(=O)N[C@@H](CC(C)C)C(=O)N[C@@H](CC(C)C)C(=O)N[C@@H](CCCNC(=N)N)C(=O)N[C@@H](CC(C)C)C(=O)N[C@@H](CO)C(=O)N[C@@H](CCC(=O)O)C(=O)N1CCC[C@H]1C(=O)N[C@@H](C)C(=O)N[C@@H](CCC(=O)O)C(=O)N[C@H](C(=O)O)C(C)C [Peptide 1389.12] | 4440 | 115 |  | 294 |  |  |  |  |
| CC[C@H](C)[C@H](NC(=O)[C@H](CO)NC(=O)[C@@H](NC(=O)CNC(=O)[C@H](CCC(=O)O)NC(=O)[C@@H]1CCCN1C(=O)[C@@H]1CCCN1C(=O)[C@H](Cc1ccccc1)NC(=O)[C@H](CC(C)C)NC(=O)[C@H](C)N)C(C)C)C(=O)O [Peptide 1419.6] | > 10000 | 133 | 2640 | 278 |  |  |  |  |
| CSCC[C@H](NC(=O)[C@H](Cc1ccccc1)NC(=O)[C@H](CCC(=O)O)NC(=O)[C@@H](NC(=O)[C@@H](NC(=O)[C@@H](N)CCCCN)C(C)C)[C@@H](C)O)C(=O)N[C@@H](CC(C)C)C(=O)N[C@@H](CS)C(=O)N[C@@H](C)C(=O)NCC(=O)N[C@H](C(=O)O)C(C)C [Peptide 1418.71] |  | 26 |  | 56 | 10 |  |  |  |

More lines, main results first:

| IC50 [1, 6] [nM] | IC50 [2, 7] [nM] | IC50 [3, 7] [nM] | IC50 [4] [nM] | IC50 [5] [nM] | IC50 [1] [nM] | IC50 [3] [nM] | SMILES | IC50 [2] [nM] |
| --- | --- | --- | --- | --- | --- | --- | --- | --- |
| 1820 | 7.1 |  | 263 | 9.1 |  |  | CC(C)C[C@H](NC(=O)[C@H](CCC(=O)O)NC(=O)[C@H](CCCNC(=N)N)NC(=O)[C@H](CC(C)C)NC(=O)[C@@H](N)CCCCN)C(=O)N[C@@H](CO)C(=O)N[C@@H](CCC(=O)O)C(=O)N[C@@H](CC(C)C)C(=O)N[C@@H](CO)C(=O)N[C@H](C(=O)O)C(C)C [Peptide 63.0048] |  |
| 2290 | 189 | 86 | 31 |  |  |  | CC(C)C[C@H](NC(=O)[C@H](CCC(=O)O)NC(=O)[C@H](CCCCN)NC(=O)[C@H](C)NC(=O)[C@H](CC(C)C)NC(=O)[C@@H](N)C(C)C)C(=O)N[C@@H](CCCCN)C(=O)N[C@@H](Cc1ccccc1)C(=O)N[C@H](C(=O)N[C@H](C(=O)O)C(C)C)C(C)C [Peptide 63.0034] |  |
| 364 | 2.8 |  | 14 | 17 |  |  | CC(C)C[C@H](NC(=O)[C@H](Cc1c[nH]c2ccccc12)NC(=O)[C@H](Cc1ccccc1)NC(=O)[C@H](Cc1ccccc1)NC(=O)[C@H](CC(C)C)NC(=O)[C@H](CC(C)C)NC(=O)[C@@H](N)Cc1ccccc1)C(=O)N[C@@H](CC(=O)O)C(=O)N[C@@H](CCCNC(=N)N)C(=O)N[C@@H](CO)C(=O)N[C@H](C(=O)O)C(C)C [Peptide 63.0138] |  |
| > 10000 | 21 |  | 6.9 | 8.1 |  |  | CC(C)C[C@H](NC(=O)[C@@H](NC(=O)[C@@H](NC(=O)[C@H](Cc1ccccc1)NC(=O)[C@H](CCCCN)NC(=O)[C@H](CC(C)C)NC(=O)[C@H](CCC(=O)O)NC(=O)[C@H](CCCCN)NC(=O)[C@H](C)NC(=O)[C@H](CC(C)C)NC(=O)[C@@H](N)C(C)C)C(C)C)[C@@H](C)O)C(=O)O [Peptide 63.0142] |  |
| 4440 | 2.7 | 822 | 65 |  |  |  | CC(C)C[C@H](NC(=O)[C@@H](NC(=O)[C@H](CO)NC(=O)[C@H](CCCNC(=N)N)NC(=O)[C@H](CC(=O)O)NC(=O)[C@H](CC(C)C)NC(=O)[C@H](Cc1c[nH]c2ccccc12)NC(=O)[C@H](Cc1ccccc1)NC(=O)[C@H](Cc1ccccc1)NC(=O)[C@H](CC(C)C)NC(=O)[C@@H](N)CC(C)C)C(C)C)C(=O)O [Peptide 63.0139] |  |
| > 10000 | 53 | 95 | 227 |  |  |  | CC(C)C[C@H](NC(=O)[C@H](Cc1ccccc1)NC(=O)[C@H](CC(C)C)NC(=O)[C@H](Cc1ccccc1)NC(=O)CNC(=O)[C@H](CC(C)C)NC(=O)[C@H](CO)NC(=O)[C@H](CC(C)C)NC(=O)[C@H](CO)NC(=O)[C@H](C)NC(=O)[C@H](C)N)C(=O)O [Peptide 63.0137] |  |
